Laboratory results taken from patent publication US4436904A, “Cephalosporins” (Kanto Ishi Pharmaceutical Co., Ltd., priority 1981, dated 1984).
Values after ≈ are worked out from the molar mass of the structure shown. Read-outs that look alike come from different tables or passages of the source.

Assays:
Assay in all cases: Minimum inhibitory concentration (MIC), standard method of the Japanese Chemotherapeutic Association
[1] = test system: Salmonella paratyphi IID 605; details: Salmonella enterica, IID605|PARATYPHI, read-out: Minimum Inhibitory Concentration (MIC)
[2] = test system: Shigella sonnei IID 969; format: cell-based; details: IID969, Inoculum size: 10^6 cells/ml
[3] = test system: Klebsiella pneumoniae IID 865; format: cell-based
[4] = test system: Enterobacter cloacae IID 977; format: cell-based
[5] = test system: Serratia marcenscens IFO 12648; format: cell-based
[6] = test system: Escherichia coli MEGAWA; format: cell-based; details: Inoculum size: 10^6 cells/ml; for MIC: Escherichia coli, read-out: Minimum Inhibitory Concentration (MIC)
[7] = test system: Enterobacter aerogenes IID 5206; format: cell-based; details: Klebsiella aerogenes
[8] = test system: Proteus vulgaris; format: cell-based; details: read-out: Minimum Inhibitory Concentration (MIC)
[9] = test system: Staphylococcus epidermidis ATCC12228; format: cell-based
[10] = test system: Salmonella typhimurium IID 1000; format: cell-based; details: Salmonella enterica, read-out: Minimum Inhibitory Concentration (MIC)
[11] = test system: Shigella boydii IID 627; format: cell-based; details: IID627, Inoculum size: 10^6 cells/ml
[12] = test system: Pseudomonas pudita IID 5121; format: cell-based; details: IID5121, Inoculum size: 10^6 cells/ml, read-out: Minimum Inhibitory Concentration (MIC)
[13] = test system: Escherichia coli N I H J; format: cell-based; details: Inoculum size: 10^6 cells/ml, read-out: Minimum Inhibitory Concentration (MIC)
[14] = test system: Proteus morganii IID 602; format: cell-based; details: Morganella morganii
[15] = test system: Shigella dysenteriae IID 633; details: IID633, read-out: Minimum Inhibitory Concentration (MIC)
[16] = test system: Pseudomonas aeruginosa IFO 13739; format: cell-based
[17] = test system: Pseudomonas aeruginosa IFO 3080; format: cell-based; details: IFO3080, read-out: Minimum Inhibitory Concentration (MIC)
[18] = test system: Staphylococcus aureus 209-P; format: cell-based; details: read-out: Minimum Inhibitory Concentration (MIC)
[19] = test system: Salmonella enteritidis IID 604; format: cell-based; details: Salmonella enterica, read-out: Minimum Inhibitory Concentration (MIC)
[20] = test system: Staphylococcus aureus TERAJIMA; format: cell-based; details: read-out: Minimum Inhibitory Concentration (MIC)
[21] = test system: Bacillus subtilis ATCC 6633; format: cell-based
[22] = IID865, Inoculum size: 10^6 cells/ml, weight concentration, read-out: Minimum Inhibitory Concentration (MIC)
[23] = IID977, Inoculum size: 10^6 cells/ml, weight concentration, read-out: Minimum Inhibitory Concentration (MIC)
[24] = ATCC12228, Inoculum size: 10^6 cells/ml, weight concentration, read-out: Minimum Inhibitory Concentration (MIC)
[25] = Inoculum size: 10^6 cells/ml, weight concentration
[26] = IID602, Inoculum size: 10^6 cells/ml, weight concentration, read-out: Minimum Inhibitory Concentration (MIC)
[27] = IFO13739, Inoculum size: 10^6 cells/ml, weight concentration, read-out: Minimum Inhibitory Concentration (MIC)
[28] = ATCC6633, Inoculum size: 10^6 cells/ml, weight concentration, read-out: Minimum Inhibitory Concentration (MIC)
[29] = IID5206, read-out: Minimum Inhibitory Concentration (MIC)

| SMILES | MIC [1] | MIC ([2]; weight concentration) | MIC [3, 22] | MIC [4, 23] | MIC ([6]; weight concentration) | MIC [8] | MIC [9, 24] | MIC ([11]; weight concentration) | MIC ([12]; weight concentration) | MIC ([13]; weight concentration) | MIC [14, 26] | MIC [15] | MIC [16, 27] | MIC [17] | MIC [21, 28] | MIC [7, 29] | MIC [10] | MIC [18] | MIC [19] | MIC [20] | also measured |
| --- | --- | --- | --- | --- | --- | --- | --- | --- | --- | --- | --- | --- | --- | --- | --- | --- | --- | --- | --- | --- | --- |
| Cn1nnnc1SCC1=C(C(=O)O)N2C(=O)C(NC(=O)[C@H](NC(=O)N3CCN(N=C4SCCS4)C3=O)c3ccccc3)C2SC1 (single isomer, unassigned) [KI-6248, sodium 7-{D-(-)-α-[(2-oxo-3-(1,3-dithiolan-2-imino)-imidazolidin-1-yl)-carboxamido]-phenylacetamido}-3-[(1-methyl-1,2,3,4-tetrazol-5-yl)-thiomethyl]-3-cephem-4-carboxylate] | 1.56 µg/mL | 0.78 µg/mL | < 0.1 µg/mL | 3.13 µg/mL | 6.25 µg/mL | 1.56 µg/mL | 0.39 µg/mL | 0.39 µg/mL | 25 µg/mL | < 0.1 µg/mL | 3.13 µg/mL | 0.2 µg/mL | 12.5 µg/mL | 1.56 µg/mL | 0.78 µg/mL | – | – | – | – | – | MIC ([5]; IFO12648, Inoculum size: 10^6 cells/ml, weight concentration, read-out: Minimum Inhibitory Concentration (MIC)): 3.13 µg/mL; MIC ([7]; IID5206, Inoculum size: 10^6 cells/ml, weight concentration, read-out: Minimum Inhibitory Concentration (MIC)): 3.13 µg/mL; MIC [10, 25]: 0.78 µg/mL; MIC [18, 25]: 0.78 µg/mL; MIC [19, 25]: 3.13 µg/mL; MIC [20, 25]: 0.78 µg/mL |
| Cn1nnnc1SCC1=C(C(=O)O)N2C(=O)C(NC(=O)[C@H](NC(=O)N3CCN(N=C4SCCS4)C3=O)c3ccc(O)cc3)C2SC1 (single isomer, unassigned) [KI-6269, sodium 7-{D-(-)-α-[(2-oxo-3-(1,3-dithiolan-2-imino)-imidazolidin-1-yl)-carboxamido]-4-hydroxyphenylacetamido}-3-[(1-methyl-1,2,3,4-tetrazol-5-yl)-thiomethyl]-3-cephem-4-carboxylate] | 1.56 µg/mL | 0.2 µg/mL | 0.2 µg/mL | 3.13 µg/mL | 6.25 µg/mL | – | 0.39 µg/mL | < 0.1 µg/mL | 25 µg/mL | < 0.1 µg/mL | 3.13 µg/mL | < 0.1 µg/mL | 6.25 µg/mL | 1.56 µg/mL | 0.78 µg/mL | 1.56 µg/mL | 1.56 µg/mL | 1.56 µg/mL | 1.56 µg/mL | 1.56 µg/mL | MIC ([5]; IFO12648, read-out: Minimum Inhibitory Concentration (MIC)): 1.56 µg/mL; MIC [8, 25]: 0.78 µg/mL |
| CC(=O)OCC1=C(C(=O)O)N2C(=O)[C@@H](NC(=O)Cc3cccs3)[C@H]2SC1 [CET, cephalothin, reference compound] | 3.13 µg/mL (≈ 7.9 µM) | – | – | – | – | 6.25 µg/mL (≈ 15.8 µM) | – | – | – | – | – | 0.78 µg/mL (≈ 1.97 µM) | – | > 100 µg/mL | – | > 100 µg/mL | 0.78 µg/mL (≈ 1.97 µM) | 0.2 µg/mL (≈ 0.504 µM) | 1.56 µg/mL (≈ 3.93 µM) | 0.2 µg/mL (≈ 0.504 µM) | MIC ([2]; potency concentration): 6.25 µg/mL (≈ 15.8 µM); MIC ([3]; IID865, read-out: Minimum Inhibitory Concentration (MIC)): 0.78 µg/mL (≈ 1.97 µM); MIC ([4]; IID977, read-out: Minimum Inhibitory Concentration (MIC)): > 100 µg/mL; MIC ([5]; IFO12648, Inoculum size: 10^6 cells/ml, potency concentration, read-out: Minimum Inhibitory Concentration (MIC)): > 100 µg/mL; MIC ([6]; potency concentration): > 100 µg/mL; Minimum Inhibitory Concentration (MIC) ([6]; potency concentration): < 100 µg/mL; MIC ([9]; ATCC12228, read-out: Minimum Inhibitory Concentration (MIC)): < 0.1 µg/mL; MIC ([11]; potency concentration): 0.78 µg/mL (≈ 1.97 µM); MIC ([12]; potency concentration): > 100 µg/mL; MIC ([13]; potency concentration): 0.39 µg/mL (≈ 0.984 µM); MIC ([14]; IID602, read-out: Minimum Inhibitory Concentration (MIC)): > 100 µg/mL; MIC ([16]; IFO13739, read-out: Minimum Inhibitory Concentration (MIC)): > 100 µg/mL; MIC ([21]; ATCC6633, read-out: Minimum Inhibitory Concentration (MIC)): < 0.1 µg/mL |
